Measured values as given in PubChem BioAssay (NCI).
Values joined by “and” are separate entries in the source; they are usually repeats but may differ in a detail not shown here. Identical values can stand only once.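 Cells were grown in 96-well plates and exposed to each compound for 48 hours at five concentrations; endpoints were interpolated linearly between bracketing concentrations, or set to the highest concentration if not reached. GI50 = concentration required for 50% inhibition of growth. The concentration for full growth arrest is given as TGI.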

Experiments:
Assay in all cases: NCI-60 cell line screen, 48 h
PC-3 prostate = tested on: PC-3 prostate
KM12 colon = tested on: KM12 colon
IGROV1 ovarian = tested on: IGROV1 ovarian
SR leukemia = tested on: SR leukemia
HCT-15 colon = tested on: HCT-15 colon
OVCAR-4 ovarian = tested on: OVCAR-4 ovarian
OVCAR-8 ovarian = tested on: OVCAR-8 ovarian
M14 melanoma = tested on: M14 melanoma
SF-295 CNS = tested on: SF-295 CNS
SF-539 CNS = tested on: SF-539 CNS

SMILES	GI50 (PC-3 prostate)	TGI (KM12 colon)	TGI (IGROV1 ovarian)	TGI (SR leukemia)	TGI (HCT-15 colon)	TGI (OVCAR-4 ovarian)	TGI (OVCAR-8 ovarian)	GI50 (M14 melanoma)	TGI (M14 melanoma)	GI50 (SF-295 CNS)	TGI (SF-295 CNS)	TGI (PC-3 prostate)	GI50 (KM12 colon)	GI50 (IGROV1 ovarian)	GI50 (SR leukemia)	GI50 (SF-539 CNS)	TGI (SF-539 CNS)	GI50 (HCT-15 colon)	GI50 (OVCAR-8 ovarian)	GI50 (OVCAR-4 ovarian)
COc1cc([C@@H]2c3cc4c(cc3[C@@H](OC3OC5COC(C)OC5C(O)C3O)[C@H]3COC(=O)[C@H]23)OCO4)cc(OC)c1O (stereo partly drawn)	12.9 µM and 7.68 µM	27.1 µM and 23.9 µM and 92.2 µM	67.8 µM and 159 µM and 157 µM	84.8 µM and 26.1 µM and 13.3 µM	285 µM and 169 µM	124 µM and 500 µM and 292 µM	117 µM and 500 µM and 156 µM	–	–	–	–	–	–	–	–	–	–	–	–	–
Cc1ccc2nc(CN(CCN(Cc3nc4ccc(C)cc4[nH]3)Cc3nc4ccc(C)cc4[nH]3)Cc3nc4ccc(C)cc4[nH]3)[nH]c2c1	1.85 µM	3.18 µM	3.35 µM	3.22 µM	3.01 µM	–	3.22 µM	1.65 µM	3.1 µM	1.55 µM	2.89 µM	3.51 µM	1.77 µM	1.82 µM	1.49 µM	1.77 µM	3.16 µM	1.62 µM	1.76 µM	–
O=C1c2ccccc2C(=O)c2c1ccc1c3ccccc3n(-c3ccccc3)c21	–	50.1 µM	41 µM	41.9 µM	32.6 µM	33.5 µM	44.8 µM	–	29.8 µM	–	37.2 µM	> 100 µM	–	–	–	–	43.6 µM	–	–	–
CSc1ccc(-c2cn3ccsc3n2)cc1	18.9 µM	> 100 µM	> 75.5 µM	> 60.8 µM	> 100 µM	> 100 µM	> 100 µM	18.1 µM	> 100 µM	19 µM	> 86 µM	> 100 µM	24.4 µM	5.73 µM	1.25 µM	16.9 µM	> 75.3 µM	9.76 µM	15.8 µM	9.15 µM
CCc1ccc([OH2+])c(C(=O)[O-])c1.CCc1ccc([OH2+])c(C(=O)[O-])c1.CCc1ccc([OH2+])c(C(=O)[O-])c1.CCc1ccc([OH2+])c(C(=O)[O-])c1.[Cu+2].[Cu+2]	> 70.5 µM	> 100 µM	> 100 µM	> 100 µM	> 100 µM	> 100 µM	> 100 µM	> 100 µM	> 100 µM	50.8 µM	> 100 µM	> 100 µM	53.6 µM	> 69.6 µM	24.5 µM	> 100 µM	> 100 µM	> 88.2 µM	5.59 µM	28.3 µM
COc1ccccc1NC(=O)c1sc2ncn(CCOc3ccccc3)c(=O)c2c1C	> 50 µM	> 50 µM	> 50 µM	6.87 µM	15.1 µM	–	> 50 µM	3.54 µM	> 50 µM	1.69 µM	> 50 µM	> 50 µM	1.43 µM	1.9 µM	0.856 µM	2.77 µM	12.2 µM	0.431 µM	> 50 µM	–
C=C1C(=O)C23C(O)CC4C(C)(C)CCC(O)C4(C)C2CC(OC(C)=O)C1[C@H]3O (stereo partly drawn)	–	31.1 µM	–	> 41.1 µM	6 µM	–	2.83 µM	–	12.1 µM	–	21.6 µM	23.7 µM	–	–	–	–	9.45 µM	–	–	–
CC/C(=C/c1ccc(OC)cc1)[N+](=O)[O-]	1.98 µM	5.47 µM	8.16 µM	7.65 µM	3.08 µM	12.1 µM	4.98 µM	1.85 µM	4.18 µM	11.3 µM	23.3 µM	3.87 µM	2.24 µM	2.82 µM	2.31 µM	1.82 µM	3.38 µM	1.48 µM	2.23 µM	3.15 µM
CNC(=O)c1sc(-n2cnc3cc(OC)c(OC)cc32)cc1OCc1ccccc1C(F)(F)F	> 25 µM	> 25 µM	> 25 µM	> 25 µM	> 25 µM	> 25 µM	> 25 µM	> 25 µM	> 25 µM	> 21.4 µM	> 25 µM	> 25 µM	> 25 µM	> 25 µM	9.49 µM	> 25 µM	> 25 µM	> 25 µM	> 19.2 µM	> 25 µM
CN(N=O)c1ccc(/C=C/c2ccnc3ccccc23)cc1	–	> 100 µM	> 100 µM	> 100 µM	> 100 µM	> 100 µM	> 100 µM	–	> 100 µM	–	> 100 µM	> 100 µM	–	–	–	–	> 100 µM	–	–	–
COc1cccc(/C=C\C(=O)c2ccccc2)c1	3.73 µM	4.91 µM	21.2 µM	> 100 µM	10.1 µM	27 µM	24.7 µM	11.7 µM	28.8 µM	8.45 µM	27.5 µM	26.2 µM	2.3 µM	3.19 µM	8.89 µM	10.7 µM	24.1 µM	2.4 µM	7.83 µM	10.8 µM
O=C(CC1(O)C(=O)Nc2ccc(Cl)cc21)c1ccc(C(=O)NCC2CCC3(CC2)OOC2(CCCCC2)OO3)cc1 (stereo not drawn)	1.88 µM	5.22 µM	2.89 µM	–	17.2 µM	18.3 µM	11.6 µM	4.41 µM	24.6 µM	2.15 µM	9.31 µM	5.83 µM	1.77 µM	0.482 µM	–	1.63 µM	3.16 µM	3.06 µM	2.68 µM	2.54 µM
CC(C)(C)n1cc(-c2ccnc(NCCCNS(=O)(=O)c3cccc4ccccc34)c2)c(-c2cccc(O)c2)n1	1.85 µM	5.42 µM	4.68 µM	5.65 µM	3.64 µM	4.75 µM	6.28 µM	1.68 µM	3.21 µM	1.8 µM	3.52 µM	5.57 µM	2.34 µM	2.14 µM	1.4 µM	1.83 µM	3.52 µM	1.53 µM	2.38 µM	1.92 µM
NP1(Oc2ccc(F)cc2)=NP(N)(Oc2ccc(F)cc2)=NP(Oc2ccc(F)cc2)(Oc2ccc(F)cc2)=N1 (stereo not drawn)	–	16.2 µM	6.31 µM	15.6 µM	14.6 µM	–	14.9 µM	–	19.4 µM	–	15.4 µM	16.4 µM	–	–	–	–	27.5 µM	–	–	–
Cc1cnc(C(=O)Nc2nc3ccc(S(=O)(=O)Nc4ccc(C(C)(C)C)cc4)cc3[nH]2)cn1	0.402 µM	11 µM	12.3 µM	12.5 µM	3.09 µM	17.3 µM	17.2 µM	0.384 µM	4.43 µM	0.401 µM	4.21 µM	8.31 µM	0.349 µM	0.776 µM	0.133 µM	0.333 µM	1.87 µM	0.304 µM	1.26 µM	1.46 µM
NS(=O)(=O)c1cccc(Nc2cc(-c3ccc(F)cc3)[nH]n2)c1	> 23.6 µM	> 25 µM	> 25 µM	> 25 µM	> 25 µM	> 25 µM	> 25 µM	> 25 µM	> 25 µM	> 25 µM	> 25 µM	> 25 µM	8.22 µM	19.3 µM	12.5 µM	15.1 µM	> 25 µM	19.3 µM	19.4 µM	> 22 µM
COc1cc([C@H]2OC[C@@H]3C(c4cc(OC)c5c(c4)OCO5)OC[C@H]23)cc(OC)c1OC (stereo partly drawn)	–	> 100 µM	> 100 µM	> 100 µM	> 100 µM	> 100 µM	> 100 µM	–	> 100 µM	–	> 100 µM	> 100 µM	–	–	–	–	> 100 µM	–	–	–
COc1ccc(/C(=C(\c2ccccc2)[N+](=O)[O-])c2ccc(OCCN3CCCC3)cc2)cc1	4.53 µM	12.4 µM	17.3 µM	5.05 µM	4.19 µM	16.7 µM	31.7 µM	1.82 µM	3.47 µM	1.93 µM	5.39 µM	16.6 µM	2.16 µM	3.57 µM	1.49 µM	1.39 µM	3.42 µM	1.49 µM	11.8 µM	4.66 µM
Nc1nc(SCC#CCCl)c2[nH]cnc2n1	14.6 µM	18.6 µM	23 µM	18.9 µM	17.7 µM	67.4 µM	33.1 µM	6.58 µM	20.9 µM	3.65 µM	17.1 µM	75.8 µM	6.14 µM	4.58 µM	3.15 µM	3.61 µM	15.4 µM	3.52 µM	11.6 µM	4.32 µM
COc1cc(OC)c(/C=C/S(=O)(=O)Cc2ccc(OC)c(N)n2)c(OC)c1	< 0.01 µM	> 100 µM	> 100 µM	> 100 µM	> 100 µM	> 100 µM	> 100 µM	< 0.01 µM	> 100 µM	< 0.01 µM	> 100 µM	> 100 µM	< 0.01 µM	< 0.0122 µM	< 0.01 µM	< 0.01 µM	< 0.01 µM	< 0.01 µM	< 0.018 µM	0.0272 µM
O=C(O)CN(CCN(CC(=O)O)CC(=O)O)CC(=O)O.[Cu+2].[Na+]	> 100 µM	> 100 µM	> 100 µM	–	> 100 µM	> 100 µM	> 100 µM	> 100 µM	> 100 µM	22.3 µM	63.3 µM	> 100 µM	> 100 µM	> 100 µM	–	> 100 µM	> 100 µM	> 100 µM	> 100 µM	> 100 µM
COc1cc(C(=O)/C=C/c2c[nH]c3ccccc23)cc(OC)c1OC	< 0.0212 µM	11.2 µM	25.3 µM	13.8 µM	19.4 µM	43.1 µM	15.6 µM	< 0.0155 µM	39.4 µM	–	–	27.9 µM	0.0217 µM	0.0713 µM	< 0.01 µM	0.0184 µM	0.0965 µM	< 0.0187 µM	0.037 µM	0.684 µM
CC1OC(O[C@@H]2C=C3CC[C@@H]4[C@H](CC[C@]5(C)[C@@H](c6ccc(=O)oc6)CC[C@]45O)[C@@]3(C)CC2)C(O)C(O)C1O (stereo partly drawn)	–	–	–	0.00115 µM	–	0.00224 µM and 0.00365 µM	–	8.85e-05 µM	0.0124 µM	–	0.003 µM and 0.000407 µM	0.00558 µM	–	–	–	–	0.000193 µM	–	–	–
CO[C@H]1C[C@H](O[C@H]2CC[C@@]3(C)[C@H](CC[C@@H]4[C@@H]3CC[C@]3(C)[C@@H](C5=CC(=O)OC5)CC[C@]43O)C2)O[C@H](C)[C@H]1O	–	0.371 µM	0.113 µM	–	0.0164 µM	< 0.0131 µM	0.0245 µM	–	0.0607 µM	–	0.0555 µM	0.0212 µM	–	–	–	–	0.0138 µM	–	–	–
COc1ccc2c(c1O)[C@@]13CCCC=C1[C@@H](C2)N(C)CC3	–	> 100 µM	> 100 µM	81.5 µM	> 100 µM	> 100 µM	> 100 µM	–	> 100 µM	–	> 100 µM	> 100 µM	–	–	–	–	–	–	–	–
COc1ccc(/C=C\c2cc(OC)c(OC)c(OC)c2)cc1NC(=O)/C=C/c1cc(OC)c(OC)c(OC)c1	3.09 µM	> 100 µM	> 100 µM	> 100 µM	> 100 µM	> 100 µM	> 100 µM	3.15 µM	> 100 µM	–	–	> 100 µM	4.67 µM	9.47 µM	0.854 µM	3.95 µM	> 100 µM	5.14 µM	5.14 µM	6.77 µM
O=C1c2ccc3c4c(ccc(c24)C(=O)N1CCCCO)C(=O)N(CCCCO)C3=O	3.1 µM	10.7 µM	5.87 µM	21.5 µM	10.5 µM	1.72 µM	8.45 µM	–	–	1.14 µM	4.84 µM	30.1 µM	2.27 µM	2.12 µM	0.745 µM	1.45 µM	3.87 µM	1.55 µM	1.33 µM	0.428 µM
OC[C@H]1C[C@](O)(c2ccccc2Cl)[C@@H](c2ccccc2Cl)O1	24.2 µM	64.8 µM	30.5 µM	41.3 µM	> 100 µM	99.2 µM	86.6 µM	–	–	27.1 µM	94.6 µM	74.6 µM	25.4 µM	10.8 µM	16.9 µM	22.4 µM	50.7 µM	28.4 µM	26.4 µM	24.3 µM
